Experimental data published in ChEMBL document CHEMBL4196095, “Design and synthesis of novel pyrrolo[2,3-a]carbazoles: 7-Chloro-2-oxo-3a-(2'-oxo-2',3'-dihydro-1'H-indol-3'-yl)-2,3,3a,4,5,10-hexahydro-pyrrolo[3,2-a]carbazole-1-carbonitrile as an efficient anticancer agent” (Eur J Med Chem, 2018).
Converted amounts (≈) assume the structure as drawn.

Legend:
[1] = Antioxidant activity assessed as DPPH radical scavenging activity incubated under dark condition for 30 mins; assay type: functional
HCT-15 = experiment: Cytotoxicity against human HCT15 cells assessed as reduction in cell viability after 24 hrs by MTT assay; assay type: functional, cell-based; details: HCT-15, 24 h

| Structure (SMILES) | IC50 [1] [µg/mL] | IC50 (HCT-15) [µM] |
| --- | --- | --- |
| Cc1cccc2c3c([nH]c12)C1=C(C#N)C(=O)NC1(C1C(=O)Nc2ccccc21)CC3 (configuration not stated) | 28.918 (≈ 73.3 µM) | 31.6 |
| Cc1cccc2c3c([nH]c12)C1=C(C#N)C(=O)NC1(C1c2ccccc2-c2nc4ccccc4nc21)CC3 (configuration not stated) | 33.936 (≈ 70.8 µM) | 23.7 |
| Cc1ccc2[nH]c3c(c2c1)CCC1(C2c4ccccc4-c4nc5ccccc5nc42)NC(=O)C(C#N)=C31 (configuration not stated) | 42.31 (≈ 88.2 µM) | 35.9 |
| Cc1cccc2c3c([nH]c12)C1=C(C#N)C(=O)NC1(C1C(=O)c2cccc4cccc1c24)CC3 (configuration not stated) | > 100 | 46.5 |
| Cc1ccc2[nH]c3c(c2c1)CCC1(C2C(=O)Nc4ccccc42)NC(=O)C(C#N)=C31 (configuration not stated) | 41.934 (≈ 106 µM) | 47.4 |
| Cc1ccc2c3c([nH]c2c1)C1=C(C#N)C(=O)NC1(C1C(=O)Nc2ccc(Cl)cc21)CC3 (configuration not stated) | 13.931 (≈ 32.5 µM) | 15.8 |
| Cc1ccc2c3c([nH]c2c1)C1=C(C#N)C(=O)NC1(C1c2ccccc2-c2nc4cc(C)c(C)cc4nc21)CC3 (configuration not stated) | 40.037 (≈ 78.9 µM) | 50.2 |
| Cc1ccc2c3c([nH]c2c1)C1=C(C#N)C(=O)NC1(C1C(=O)c2cccc4cccc1c24)CC3 (configuration not stated) | 28.251 (≈ 65.8 µM) | 31.6 |
| O=C1O[C@H]([C@@H](O)CO)C(O)=C1O [ASCORBIC ACID] | 13.228 (≈ 75.1 µM) | – |
